Reference: patent US8211929B2, “Pyrimidine derivatives as kinase modulators and method of use” (Exelixis, Inc., priority 2004, dated 2012)
Read-outs that look alike come from different tables or passages of the source.

Assays:
IGF 3P = biological target: T1, IGF 3P (Homo sapiens, UniProt P08069); assay: IGF1R kinase assay (LCCA), IGF 3P; type: biochemical
T1 construct: human IGF1R kinase domain residues M954-C1367; made in house; host or cells: baculovirus expression (insect cells)
Method in brief: (§1)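 Read-out is percent ATP remaining, detected by luciferase-luciferin luminescence after a 2 h ambient reaction. Reaction contained 4 nM IGF1R kinase domain (residues M954-C1367, baculovirus-made), 3 μM ATP (near KM), 4 μM poly EY, pH 7.5 with Mg2+/Mn2+. Ten inhibitor concentrations; IC50 by Hill-type curve fit.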

[1] = biological target: T2, (Homo sapiens, UniProt P08069); assay: IGF1R kinase assay (LCCA), IGF 0P; type: biochemical
T2 construct: human IGF1R kinase domain residues M954-C1367; made in house; host or cells: baculovirus expression (insect cells)
Method in brief: as §1

T2 sequence (P08069 954-1367): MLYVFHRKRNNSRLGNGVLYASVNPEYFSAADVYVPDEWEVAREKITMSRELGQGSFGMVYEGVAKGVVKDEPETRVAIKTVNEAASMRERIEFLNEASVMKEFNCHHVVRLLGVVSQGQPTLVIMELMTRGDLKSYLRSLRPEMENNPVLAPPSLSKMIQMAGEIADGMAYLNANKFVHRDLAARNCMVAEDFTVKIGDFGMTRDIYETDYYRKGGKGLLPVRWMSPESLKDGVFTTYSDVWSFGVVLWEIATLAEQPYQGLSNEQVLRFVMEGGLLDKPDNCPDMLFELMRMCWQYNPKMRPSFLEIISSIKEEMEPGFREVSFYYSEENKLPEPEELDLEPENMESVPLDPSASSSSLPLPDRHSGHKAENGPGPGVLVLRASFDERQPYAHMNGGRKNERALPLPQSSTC
T1 sequence (P08069 954-1367): as above

Structure (SMILES) | IC50 (IGF 3P; IGF1R kinase LCCA assay) [nM] | IC50 ([1]; IGF1R kinase LCCA assay) [nM] | also measured
CCN(CC)CCNC(=O)c1ccc(Nc2ncc(C)c(Nc3cc(C4CC4)n[nH]3)n2)cc1 [Example 167] | 500 to 5000 | 500 to 5000 | 
Cc1cc(Nc2cc(C3CC3)[nH]n2)nc(NCc2cc(-c3cccnc3)no2)n1 [Example 610, N^4-(5-cyclopropyl-1H-pyrazol-3-yl)-6-methyl-N^2-[(3-pyridin-3-ylisoxazol-5-yl)methyl]pyrimidine-2,4-diamine] |  |  | IC50 (IGF 3P): < 50 nM; IC50 [1]: 50 to 500 nM
CC(=O)NCC=CCn1cc(-c2cccc(OCc3ccccc3)c2)c2c(N)ncnc21 [Example 345] |  |  | IC50 (IGF 3P; IGF1R kinase LCCA assay, IGF 3P): 500 to 5000 nM; IC50 ([1]; IGF1R kinase LCCA assay, IGF 0P): > 5000 nM
Cc1cc(Nc2cc(C3CC3)[nH]n2)nc(NCc2cc(-c3ccc(Cl)cc3)no2)n1 [Example 178] | 500 to 5000 | 50 to 500 | 
Nc1ncnc2c1c(-c1ccc(NC(=O)C3(C(=O)Nc4ccc(F)cc4)CC3)cc1)cn2C1CC(CN2CCCC2)C1 (stereo not shown) [Example 343] | 500 to 5000 | 500 to 5000 | 
Nc1nc(Nc2ccc(N3CCOCC3)cc2)ncc1Br [Example 287] | > 5000 | > 5000 | 
Nc1cccc(Nc2nc(NCc3cc(-c4ccccc4)no3)ncc2Br)n1 [Example 291] | > 5000 | > 5000 | 
Brc1cnc(Nc2cc(-c3ccccc3)n[nH]2)nc1Nc1cc(-c2ccccc2)n[nH]1 [Example 319] | > 5000 | > 5000 | 
Brc1ccccc1Nc1ncc(Br)c(Nc2cc(C3CC3)n[nH]2)n1 [Example 83] | 50 to 500 | 50 to 500 | 
N#Cc1cccc(Nc2ncc(Br)c(Nc3cc(C4CC4)n[nH]3)n2)c1 [Example 196] | 500 to 5000 | 500 to 5000 | 
CN1CCC(NC(=O)c2ccc(Nc3nccc(Nc4cc(C5CC5)n[nH]4)n3)cc2)CC1 [Example 164] | 500 to 5000 | 500 to 5000 | 
CC(=O)NCC#CCn1cc(-c2cccc(OCc3ccccc3)c2)c2c(N)ncnc21 [Example 355] | > 5000 | > 5000 | 
CC(C)(C)OC(=O)N1CC[C@H](NC(=O)c2cccc(Nc3ncc(Br)c(Nc4cc(C5CC5)n[nH]4)n3)c2)C1 [Example 141] | 50 to 500 | 500 to 5000 | 
CC(C)(C)c1cc(Nc2nc(Nc3ccccc3)ncc2Br)n[nH]1 [Example 116] | 50 to 500 | 500 to 5000 | 
Cc1cc(CNc2nc(C)cc(Nc3cc(C4CC4)n[nH]3)n2)on1 [Example 600, N^4-(3-cyclopropyl-1H-pyrazol-5-yl)-6-methyl-N^2-[(3-methylisoxazol-5-yl)methyl]pyrimidine-2,4-diamine] |  |  | IC50 (IGF 3P): 50 to 500 nM; IC50 [1]: 50 to 500 nM
CC(C)c1cc(Nc2cc(N3CCN(C)CC3)nc(NCc3cc(-c4ccccc4)no3)n2)n[nH]1 [Example 497] | < 50 | 50 to 500 | 
N#Cc1ccc(Nc2ncc(Cl)c(Nc3cc(C4CC4)[nH]n3)n2)cc1 [Example 117] | 50 to 500 | 50 to 500 | 
CCN(CC)CCCNC(=O)CCc1cccc(Nc2ncc(Br)c(Nc3cc(C4CC4)n[nH]3)n2)c1 [Example 107] | 50 to 500 | 500 to 5000 | 
CC(C)c1cc(Nc2cc(N3CCOCC3)nc(NCc3cc(-c4ccc(F)cc4)no3)n2)[nH]n1 [Example 607, N^2-{[3-(4-fluorophenyl)isoxazol-5-yl]methyl}-N^4-[3-(1-methylethyl)-1H-pyrazol-5-yl]-6-morpholin-4-ylpyrimidine-2,4-diamine] |  |  | IC50 (IGF 3P): < 50 nM; IC50 [1]: 50 to 500 nM
Brc1ccc(Br)c(Nc2ncc(Br)c(Nc3cc(C4CC4)n[nH]3)n2)c1 [Example 172] | 500 to 5000 | 50 to 500 | 
Cc1cc(Nc2cc(C)on2)nc(Nc2ccc(N3CCOCC3)cc2)n1 [Example 295] | > 5000 | > 5000 | 
O=C(NCCN1CCOCC1)c1nc(Nc2ccccc2Cl)nc(Nc2cc(C3CC3)n[nH]2)c1[N+](=O)[O-] [Example 228] | 500 to 5000 | 500 to 5000 | 
Brc1cnc(Nc2ccc3[nH]ccc3c2)nc1Nc1cc(C2CC2)n[nH]1 [Example 132] | 50 to 500 | 50 to 500 | 
Brc1cnc(NCc2cc(-c3ccccc3)no2)nc1Nc1ccccc1 [Example 292] | > 5000 | > 5000 | 

Structure (SMILES) | IC50 (IGF 3P; IGF1R kinase LCCA assay) [nM] | IC50 ([1]; IGF1R kinase LCCA assay) [nM] | also measured
CCN(CC)CCNc1cc(Nc2cc(C3CC3)[nH]n2)nc(NCc2cc(-c3ccccc3)no2)n1 [Example 45] | < 50 | < 50 | 
O=C(Nc1ccc(Cl)c(Nc2ncc(Br)c(Nc3cc(C4CC4)[nH]n3)n2)c1)c1ccccc1 [Example 169] | 500 to 5000 | 500 to 5000 | 
Cc1cc(CNc2nc(Nc3cc(C4CC4)[nH]n3)cc(NC3CC4CCC3C4)n2)on1 (stereo not shown) [Example 634, N^4-bicyclo[2.2.1]hept-2-yl-N^6-(5-cyclopropyl-1H-pyrazol-3-yl)-N^2-[(3-methylisoxazol-5-yl)methyl]pyrimidine-2,4,6-triamine] |  |  | IC50 (IGF 3P): < 50 nM; IC50 [1]: 50 to 500 nM
Nc1cnc(Nc2ccccc2Cl)nc1Nc1cc(C2CC2)n[nH]1 [Example 220] | 500 to 5000 | 50 to 500 | 
COc1cc(Nc2nc(C)cc(Nc3cc(C4CC4)[nH]n3)n2)cc(OC)c1 [Example 261] | > 5000 | 500 to 5000 | 
Cc1cc(CNc2nc(Nc3cc(C4CC4)[nH]n3)cc(N3CC4CC3CN4C)n2)on1 (stereo not shown) [Example 631, N^4-(5-cyclopropyl-1H-pyrazol-3-yl)-6-(5-methyl-2,5-diazabicyclo[2.2.1]hept-2-yl)-N^2-[(3-methylisoxazol-5-yl)methyl]pyrimidine-2,4-diamine] |  |  | IC50 (IGF 3P): < 50 nM; IC50 [1]: 50 to 500 nM
Clc1ccccc1Nc1ncc(Cl)c(Nc2cc(C3CC3)[nH]n2)n1 [Example 101] | 50 to 500 | 50 to 500 | 
Cc1cc(Nc2ccnc(Nc3ccc(N4CCOCC4)cc3)n2)no1 [Example 113] | 50 to 500 | 500 to 5000 | 
CC(C)c1cc(Nc2cc(OCCN3CCCCC3)nc(NCc3cc(-c4ccccc4)no3)n2)[nH]n1 [Example 589, N^4-[3-(1-methylethyl)-1H-pyrazol-5-yl]-N^2-[(3-phenylisoxazol-5-yl)methyl]-6-[(2-piperidin-1-ylethyl)oxy]pyrimidine-2,4-diamine] |  |  | IC50 (IGF 3P): < 50 nM; IC50 [1]: 50 to 500 nM
Cc1cc(Nc2ccccc2)nc(Nc2ccc(CCC(=O)NCCN3CCCC3)cc2)n1 [Example 309] | > 5000 | > 5000 | 
Brc1cnc(NCc2cc(-c3ccccc3)no2)nc1Nc1cc(C2CC2)[nH]n1 [Example 14] | 50 to 500 | 50 to 500 | 
c1cc(Nc2ccon2)nc(Nc2ccc(N3CCOCC3)cc2)n1 [Example 311] | > 5000 | > 5000 | 
Cc1cc(Nc2cc(C3CC3)[nH]n2)nc(NCc2cc(C3CCCCC3)no2)n1 [Example 82] | 50 to 500 | 50 to 500 | 
Nc1ncnc2c1c(-c1cccc(OCc3ccccc3)c1)cn2CC1CC2CN(C(=O)OCc3ccccc3)CC2C1 (stereo not shown) [Example 356] | > 5000 | > 5000 | 
Cc1cc(Nc2cc(-c3ccco3)[nH]n2)nc(NCc2cc(-c3ccccc3)no2)n1 [Example 246] | 500 to 5000 | 500 to 5000 | 
Brc1cnc(Nc2ccncc2)nc1Nc1cc(C2CC2)[nH]n1 [Example 316] | > 5000 | > 5000 | 
Cc1cc(Nc2cc(C3CC3)[nH]n2)nc(NCc2cc(-c3cccc(Cl)c3)no2)n1 [Example 538] | 50 to 500 | 50 to 500 | 
CC(C)c1cc(CNc2nc(Nc3cc(C4CC4)[nH]n3)cc(OCCN3CCOCC3)n2)on1 [Example 594, N^4-(5-cyclopropyl-1H-pyrazol-3-yl)-N^2-{[3-(1-methylethyl)isoxazol-5-yl]methyl}-6-[(2-morpholin-4-ylethyl)oxy]pyrimidine-2,4-diamine] |  |  | IC50 (IGF 3P): < 50 nM; IC50 [1]: 500 to 5000 nM
Cc1cc(Nc2cc(C3CC3)n[nH]2)nc(Nc2cc(C(F)(F)F)cc(C(F)(F)F)c2)n1 [Example 300] | > 5000 | > 5000 | 
CN1CCN(CCNC(=O)c2cc(Nc3cc(C4CC4)[nH]n3)nc(NCc3cc(-c4ccccc4)no3)n2)CC1 [Example 527] | 50 to 500 | 50 to 500 | 
CCc1cc(CNc2nc(Nc3cc(C4CC4)n[nH]3)cc(N3CCOCC3)n2)on1 [Example 656, N^4-(3-cyclopropyl-1H-pyrazol-5-yl)-N^2-[(3-ethylisoxazol-5-yl)methyl]-6-morpholin-4-ylpyrimidine-2,4-diamine] |  |  | IC50 (IGF 3P): < 50 nM; IC50 [1]: 50 to 500 nM
COc1cc(Nc2ncc(Br)c(Nc3cc(C)on3)n2)cc(OC)c1 [Example 53] | < 50 | 50 to 500 | 
FC(F)(F)c1ccc(-c2ncc(CNc3ncc(Br)c(Nc4cc(C5CC5)[nH]n4)n3)s2)cc1 [Example 288] | > 5000 | > 5000 | 
